Reference: ChEMBL document CHEMBL4765390, “Discovery of carboxyl-containing biaryl ureas as potent RORγt inverse agonists” (Eur J Med Chem, 2020)
Converted amounts (≈) assume the structure as drawn.

How the values were obtained:
[1] = Aqueous kinetic solubility of the compound at pH 7.4 PBS buffer at 100 uM incubated for 120 mins by LC-MS/MS analysis; format: physicochemical; settings: read-out: Kinetic_solubility
[2] = biological target: T1, Nuclear receptor ROR-alpha (Homo sapiens, UniProt P35398); test: Inverse agonist activity at ROR-alpha (unknown origin) expressed in HEK293 cells by Gal4-luciferase reporter assay; format: cell-based
T1 sequence (P35398 whole entry): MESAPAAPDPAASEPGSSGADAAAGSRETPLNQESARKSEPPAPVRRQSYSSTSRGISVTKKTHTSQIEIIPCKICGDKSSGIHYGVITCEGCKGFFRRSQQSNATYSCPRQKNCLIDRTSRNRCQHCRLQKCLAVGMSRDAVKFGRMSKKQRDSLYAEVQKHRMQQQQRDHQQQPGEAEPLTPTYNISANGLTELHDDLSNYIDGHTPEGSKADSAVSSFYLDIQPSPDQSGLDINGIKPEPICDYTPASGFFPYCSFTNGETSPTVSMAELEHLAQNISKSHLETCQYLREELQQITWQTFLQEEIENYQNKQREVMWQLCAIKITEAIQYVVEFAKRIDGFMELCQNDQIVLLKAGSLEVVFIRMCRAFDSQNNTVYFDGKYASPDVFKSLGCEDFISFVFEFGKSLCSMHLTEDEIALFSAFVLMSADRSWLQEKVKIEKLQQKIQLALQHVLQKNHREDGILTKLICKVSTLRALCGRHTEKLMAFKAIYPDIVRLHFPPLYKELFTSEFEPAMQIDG

[3] = biological target: T2, Nuclear receptor ROR-beta (Homo sapiens, UniProt Q92753); test: Inverse agonist activity at ROR-beta (unknown origin) expressed in HEK293 cells by Gal4-luciferase reporter assay; format: cell-based
T2 sequence (Q92753 whole entry): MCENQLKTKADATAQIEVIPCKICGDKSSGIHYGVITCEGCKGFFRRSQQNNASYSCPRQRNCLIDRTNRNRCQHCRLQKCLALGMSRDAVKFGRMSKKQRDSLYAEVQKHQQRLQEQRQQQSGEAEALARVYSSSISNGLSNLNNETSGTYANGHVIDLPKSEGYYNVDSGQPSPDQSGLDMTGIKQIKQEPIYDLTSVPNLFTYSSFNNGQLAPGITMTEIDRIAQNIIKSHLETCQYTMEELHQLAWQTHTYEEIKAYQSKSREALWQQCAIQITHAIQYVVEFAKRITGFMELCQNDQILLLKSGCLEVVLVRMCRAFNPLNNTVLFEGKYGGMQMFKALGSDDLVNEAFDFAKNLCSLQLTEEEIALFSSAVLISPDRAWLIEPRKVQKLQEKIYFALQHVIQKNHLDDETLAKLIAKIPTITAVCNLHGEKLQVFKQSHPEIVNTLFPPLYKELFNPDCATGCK

[4] = Tmax in CD-1 mouse at 5 mg/kg, po administered as single dose measured after 24 hrs by LC-MS/MS analysis; format: ADME, organism-based; settings: in vivo
[5] = Cmax in CD-1 mouse at 1 mg/kg, iv administered as single dose measured after 24 hrs by LC-MS/MS analysis; format: ADME, organism-based; parameters: route intravenous, time 24 hrs, dose 1 mg/kg; settings: in vivo
[6] = Cmax in CD-1 mouse at 5 mg/kg, po administered as single dose measured after 24 hrs by LC-MS/MS analysis; format: ADME, organism-based; parameters: route oral, time 24 hrs, dose 5 mg/kg; settings: in vivo
[7] = AUC (0 to last) in CD-1 mouse at 1 mg/kg, iv administered as single dose measured after 24 hrs by LC-MS/MS analysis; format: ADME, organism-based; parameters: route intravenous, dose 1 mg/kg, time 24 hrs; settings: in vivo
[8] = AUC (0 to last) in CD-1 mouse at 5 mg/kg, po administered as single dose measured after 24 hrs by LC-MS/MS analysis; format: ADME, organism-based; parameters: route oral, dose 5 mg/kg, time 24 hrs; settings: in vivo
[9] = Volume of distribution at steady state in CD-1 mouse at 1 mg/kg, iv administered as single dose measured after 24 hrs by LC-MS/MS analysis; format: ADME, organism-based; settings: in vivo, read-out: Vdss
[10] = Half life in CD-1 mouse at 1 mg/kg, iv administered as single dose measured after 24 hrs by LC-MS/MS analysis; format: ADME, organism-based; settings: in vivo
[11] = Half life in CD-1 mouse at 5 mg/kg, po administered as single dose measured after 24 hrs by LC-MS/MS analysis; format: ADME, organism-based; settings: in vivo
[12] = Clearance in CD-1 mouse at 1 mg/kg, iv administered as single dose measured after 24 hrs by LC-MS/MS analysis; format: ADME, organism-based; settings: in vivo
[13] = Oral bioavailability in CD-1 mouse at 5 mg/kg administered as single dose measured after 24 hrs by LC-MS/MS analysis; format: ADME, organism-based; settings: in vivo
[14] = biological target: T3, Nuclear receptor ROR-gamma (Homo sapiens, UniProt P51449); test: Inverse agonist activity at human RORgammat assessed as inhibition of N-terminal biotinylated co-activator SRC1 recruitment measured after 60 mins by FRET assay
T3 sequence (P51449 whole entry): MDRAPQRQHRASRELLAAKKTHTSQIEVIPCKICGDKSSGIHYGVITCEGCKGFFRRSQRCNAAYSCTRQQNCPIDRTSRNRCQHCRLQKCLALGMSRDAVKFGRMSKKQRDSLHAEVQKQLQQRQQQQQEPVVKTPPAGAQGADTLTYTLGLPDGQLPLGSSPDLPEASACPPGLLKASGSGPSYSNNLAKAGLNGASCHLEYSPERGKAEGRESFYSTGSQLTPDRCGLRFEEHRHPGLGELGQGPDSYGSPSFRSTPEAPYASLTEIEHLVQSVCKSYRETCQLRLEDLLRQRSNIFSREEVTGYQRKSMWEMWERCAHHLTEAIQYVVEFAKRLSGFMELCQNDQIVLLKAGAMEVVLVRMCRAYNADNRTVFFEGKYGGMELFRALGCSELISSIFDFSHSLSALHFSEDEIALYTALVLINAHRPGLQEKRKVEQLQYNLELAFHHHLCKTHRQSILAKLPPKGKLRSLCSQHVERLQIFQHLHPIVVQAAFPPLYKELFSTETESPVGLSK

Row | IC50 [14] | SMILES | further results
1 | – | O=C(O)Cc1ccc(CNC(=O)Nc2cc(Cl)c(-c3ccccc3OC(F)(F)F)c(Cl)c2)cc1 | solubility kinetic at 2 h, 100 µM [1]: 84 µg/mL (≈ 164 µM); IC50 [2]: > 10000 nM; IC50 [3]: > 10000 nM; Tmax [4]: 1 h; Cmax [5]: 1550 ng/mL; Cmax [6]: 609 ng/mL; AUC(0-t) at 24 h [7]: 1270 ng·h/mL; AUC(0-t) at 24 h [8]: 2410 ng·h/mL; Vd [9]: 1.78 L/kg; half-life [10]: 3.04 h; half-life [11]: 3.63 h; clearance [12]: 13.1 mL/min/kg; bioavailability [13]: 38.1%
2 | 398 nM | Cc1cc(CC(=O)O)ccc1CNC(=O)Nc1cc(Cl)c(-c2ccccc2OC(F)(F)F)c(Cl)c1 | –
3 | 841 nM | O=C(O)CCc1ccc(CNC(=O)Nc2cc(Cl)c(-c3ccccc3OC(F)(F)F)c(Cl)c2)cc1 | –
4 | 426 nM | CCS(=O)(=O)c1ccc(CCOc2cc(Cl)c(-c3ccccc3OC(F)(F)F)c(Cl)c2)cc1 | –
5 | 112 nM | CCS(=O)(=O)c1ccc(CNC(=O)c2cc(Cl)c(-c3ccccc3OC(F)(F)F)c(Cl)c2)cc1 | –
6 | 996 nM | O=C(O)Cc1ccc(CNC(=O)Nc2cc(F)c(-c3ccccc3OC(F)(F)F)c(F)c2)nc1 | –
7 | 99 nM | CCS(=O)(=O)c1ccc(OCC(=O)Nc2cc(Cl)c(-c3ccccc3OC(F)(F)F)c(Cl)c2)cc1 | –
8 | 21.6 nM | CCS(=O)(=O)c1ccc(CCNc2cc(Cl)c(-c3ccccc3OC(F)(F)F)c(Cl)c2)cc1 | –
9 | 69 nM | CS(=O)(=O)c1ccc(CNC(=O)Nc2cc(Cl)c(-c3ccccc3OC(F)(F)F)c(Cl)c2)cc1 | –
10 | 334 nM | CC(C(=O)O)c1ccc(CNC(=O)Nc2cc(Cl)c(-c3ccccc3OC(F)(F)F)c(C#N)c2)cc1 (configuration not stated) | –
11 | 584 nM | O=C(NCc1ccc(C(O)CO)cc1)Nc1cc(Cl)c(-c2ccccc2OC(F)(F)F)c(Cl)c1 (configuration not stated) | –
12 | 276 nM | NS(=O)(=O)c1ccc(CNC(=O)Nc2cc(Cl)c(-c3ccccc3OC(F)(F)F)c(Cl)c2)cc1 | –
13 | 541 nM | CC(C(=O)O)c1ccc(CNC(=O)Nc2cc(Cl)c(-c3ccccc3OC(F)(F)F)c(Cl)c2)cc1 (configuration not stated) | –
14 | 995 nM | Cc1cc(CNC(=O)Nc2cc(Cl)c(-c3ccccc3OC(F)(F)F)c(Cl)c2)ccc1CC(=O)O | –
15 | 4410 nM | CCS(=O)(=O)c1ccc(COCc2cc(Cl)c(-c3ccccc3OC(F)(F)F)c(Cl)c2)cc1 | –
16 | 200 nM | CCS(=N)(=O)c1ccc(CNC(=O)Nc2cc(Cl)c(-c3ccccc3OC(F)(F)F)c(Cl)c2)cc1 (configuration not stated) | –
17 | 345 nM | Cc1cc(NC(=O)NCc2ccc(CC(=O)O)cn2)cc(C)c1-c1ccccc1OC(F)F | –
18 | – | CCS(=O)(=O)c1ccc(CC(=O)Nc2cc(Cl)c(-c3ccccc3OC(F)(F)F)c(Cl)c2)cc1 | solubility kinetic at 2 h, 100 µM [1]: 1.25 µg/mL (≈ 2.35 µM)
19 | 1780 nM | CC(C(=O)O)c1ccc(CNC(=O)Nc2cc(Cl)c(-c3ccccc3OC(F)(F)F)c(Cl)c2)nc1 (configuration not stated) | –
20 | 138 nM | CC(=O)NS(=O)(=O)c1ccc(CNC(=O)Nc2cc(Cl)c(-c3ccccc3OC(F)(F)F)c(Cl)c2)cc1 | –
21 | > 30000 nM | O=C(O)Cc1ccc(CNC(=O)Nc2ccc(-c3ccccc3)cc2)cc1 | –
22 | 278 nM | O=C(NCc1ccc(C(O)C(=O)O)cc1)Nc1cc(Cl)c(-c2ccccc2OC(F)(F)F)c(Cl)c1 (configuration not stated) | –
23 | 124 nM | O=C(NCc1ccc(C(F)C(=O)O)cc1)Nc1cc(Cl)c(-c2ccccc2OC(F)(F)F)c(Cl)c1 (configuration not stated) | –
24 | 99.8 nM | CNS(=O)(=O)c1ccc(CNC(=O)Nc2cc(Cl)c(-c3ccccc3OC(F)(F)F)c(Cl)c2)cc1 | –
25 | 1100 nM | O=C(NCc1ccc(C(=O)O)cc1)Nc1cc(Cl)c(-c2ccccc2OC(F)(F)F)c(Cl)c1 | –
